From ChEMBL document CHEMBL1201862, “PubChem BioAssay data set” (2004)
Active and inactive are the calls of the source.

Columns and labels:
[1] = target: Dual specificity tyrosine-phosphorylation-regulated kinase 1A (Rattus norvegicus, UniProt Q63470); assay type: biochemical, Homo sapiens
[2] = viability loss in HeLa cells – cytotoxicity control for MgcRacGAP inhibitor project, dose response (AID 624300); assay type: functional
Hexokinase HKDC1 = target: T1, Hexokinase HKDC1 (Homo sapiens, UniProt Q2TB90); experiment: inhibition of HKDC1 glucose phosphorylation – biochemical, W721R variant, dose response (AID 504729); assay type: functional
T1 sequence (Q2TB90 whole entry): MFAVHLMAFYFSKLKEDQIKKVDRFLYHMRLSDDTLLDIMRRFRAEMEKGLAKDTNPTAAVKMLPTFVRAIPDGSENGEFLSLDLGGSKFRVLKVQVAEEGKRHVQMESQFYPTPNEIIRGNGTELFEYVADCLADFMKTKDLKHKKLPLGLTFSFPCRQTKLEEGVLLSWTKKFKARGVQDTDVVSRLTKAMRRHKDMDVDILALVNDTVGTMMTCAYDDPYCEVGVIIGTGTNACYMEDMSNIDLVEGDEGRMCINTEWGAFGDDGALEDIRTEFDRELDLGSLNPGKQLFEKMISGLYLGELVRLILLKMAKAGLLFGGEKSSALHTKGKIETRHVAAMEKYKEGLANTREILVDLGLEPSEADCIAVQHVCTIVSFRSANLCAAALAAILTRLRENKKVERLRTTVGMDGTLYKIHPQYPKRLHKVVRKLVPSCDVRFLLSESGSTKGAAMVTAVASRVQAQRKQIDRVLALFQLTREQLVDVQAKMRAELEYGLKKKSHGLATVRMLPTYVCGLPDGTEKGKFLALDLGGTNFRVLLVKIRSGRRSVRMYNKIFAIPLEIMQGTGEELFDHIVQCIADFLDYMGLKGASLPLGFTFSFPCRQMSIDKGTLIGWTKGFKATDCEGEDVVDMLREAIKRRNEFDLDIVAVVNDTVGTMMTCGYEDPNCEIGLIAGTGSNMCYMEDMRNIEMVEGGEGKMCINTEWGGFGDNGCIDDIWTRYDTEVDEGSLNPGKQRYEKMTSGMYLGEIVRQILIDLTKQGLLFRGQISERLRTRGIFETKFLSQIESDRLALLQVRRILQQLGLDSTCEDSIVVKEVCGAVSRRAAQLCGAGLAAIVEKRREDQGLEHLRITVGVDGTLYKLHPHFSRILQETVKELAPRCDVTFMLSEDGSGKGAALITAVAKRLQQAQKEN

[3] = Trypanosoma cruzi growth suppression in host cells – NIH3T3 host cells, beta-gal luminescence, confirmation (AID 2044); assay type: functional, cell-based;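 further: intracellular parasites grown in NIH/3T3 mouse fibroblasts as host cells; luminescent beta-galactosidase reporter signal from transgenic T. cruzi replicating inside host cells; inhibitors lower the luminescence signal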
[4] = viability loss in THP-1 monocytes – THP-1 cells, cytotoxicity control for Vif-APOBEC3G degradation inhibitor project, dose response (AID 1117359); assay type: functional; conditions: THP-1
[5] = target: T2, Sentrin-specific protease 7 (Homo sapiens, UniProt Q9BQF6); assay type: functional;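 further: Luminescence-based dose-response confirmation of ultra-high-throughput screening hits, measuring inhibition of SENP7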
T2 sequence (Q9BQF6 whole entry): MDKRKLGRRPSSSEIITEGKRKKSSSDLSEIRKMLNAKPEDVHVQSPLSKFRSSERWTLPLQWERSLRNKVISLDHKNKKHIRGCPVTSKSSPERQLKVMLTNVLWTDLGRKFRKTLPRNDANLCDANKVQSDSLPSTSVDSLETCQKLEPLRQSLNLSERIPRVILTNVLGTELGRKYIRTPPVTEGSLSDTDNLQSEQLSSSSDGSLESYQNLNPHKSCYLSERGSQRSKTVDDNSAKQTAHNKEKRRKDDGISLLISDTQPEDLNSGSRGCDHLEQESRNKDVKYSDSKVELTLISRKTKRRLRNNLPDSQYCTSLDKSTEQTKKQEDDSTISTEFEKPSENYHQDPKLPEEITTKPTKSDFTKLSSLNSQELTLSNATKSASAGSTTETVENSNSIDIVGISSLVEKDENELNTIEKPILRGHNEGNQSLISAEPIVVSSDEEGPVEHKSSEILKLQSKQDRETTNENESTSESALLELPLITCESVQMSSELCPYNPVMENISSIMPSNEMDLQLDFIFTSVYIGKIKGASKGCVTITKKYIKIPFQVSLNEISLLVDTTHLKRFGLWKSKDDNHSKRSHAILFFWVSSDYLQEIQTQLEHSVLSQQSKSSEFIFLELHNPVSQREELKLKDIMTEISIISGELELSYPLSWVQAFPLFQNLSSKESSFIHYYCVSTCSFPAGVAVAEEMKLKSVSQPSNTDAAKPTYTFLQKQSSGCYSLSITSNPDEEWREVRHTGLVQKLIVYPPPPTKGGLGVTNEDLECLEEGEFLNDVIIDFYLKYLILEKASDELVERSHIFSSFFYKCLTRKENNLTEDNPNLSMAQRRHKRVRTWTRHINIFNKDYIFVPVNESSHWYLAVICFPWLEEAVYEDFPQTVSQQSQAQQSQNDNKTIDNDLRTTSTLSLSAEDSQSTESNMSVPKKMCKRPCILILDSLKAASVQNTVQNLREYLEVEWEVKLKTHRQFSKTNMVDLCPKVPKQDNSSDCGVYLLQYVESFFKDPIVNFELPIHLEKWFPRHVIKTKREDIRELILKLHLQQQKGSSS

[6] = inhibition of ARNT PAS-B/TACC3 complex formation – biochemical, AlphaScreen, cherry-picked samples, confirmation (AID 651703); assay type: functional, Homo sapiens;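 further: His-tagged ARNT PAS-B domain paired with GST-TACC3 E629A dimer coactivator fragment; potency of inhibitors that break up the complex and lower AlphaScreen signal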
[7] = target: T3, Sentrin-specific protease 8 (Homo sapiens, UniProt Q96LD8); assay type: functional
T3 sequence (Q96LD8 whole entry): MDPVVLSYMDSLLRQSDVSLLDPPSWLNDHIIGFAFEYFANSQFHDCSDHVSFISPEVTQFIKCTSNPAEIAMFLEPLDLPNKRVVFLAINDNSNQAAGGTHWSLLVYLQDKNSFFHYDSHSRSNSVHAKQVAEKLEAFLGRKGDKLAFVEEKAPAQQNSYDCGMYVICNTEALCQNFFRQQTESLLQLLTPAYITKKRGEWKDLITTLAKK

[8] = target: Eukaryotic translation initiation factor 4E (Mus musculus, UniProt P63073); experiment: blockers of eIF4G binding by eIF4E – biochemical, TR-FRET, dose response (AID 855); assay type: functional;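 further: potency for disrupting eIF4E binding to eIF4GI seen as loss of FRET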
Sequence of Eukaryotic translation initiation factor 4E (P63073 whole entry): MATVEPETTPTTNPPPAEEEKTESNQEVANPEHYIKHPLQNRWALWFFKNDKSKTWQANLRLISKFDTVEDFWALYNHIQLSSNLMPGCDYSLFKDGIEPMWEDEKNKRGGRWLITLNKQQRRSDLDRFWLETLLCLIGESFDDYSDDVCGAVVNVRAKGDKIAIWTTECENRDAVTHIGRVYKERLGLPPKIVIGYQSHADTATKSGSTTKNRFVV

[9] = A cytotoxicity screen of small molecule inhibitors of the PhoP region in Salmonella typhi identified in the primary screen. [Related pubchem assays: 1850, 1864, 1985 ]; assay type: functional
[10] = target: T3, Sentrin-specific protease 8; assay type: functional; remark: listed apart in the source

| Compound | IC50 (Hexokinase HKDC1) | EC50 [3] | CC50 [4] | IC50 [5] | IC50 [7] | further results |
| --- | --- | --- | --- | --- | --- | --- |
| O=C1C(Nc2ccc(O)cc2)=C/C(=N/S(=O)(=O)c2cccs2)c2ccccc21 | 8.31 µM (active) | 550 nM (active) |  |  |  | AC50 [1]: 883 nM (active); CC50 [2]: 2.59 µM (active) |
| COc1ccc(S(=O)(=O)Nc2cc(SCC(=O)O)c(O)c3ccccc23)cc1 | 12 µM (active) |  | 5.84 µM (active) | 19.9 µM (active) | 9.39 µM (active) | AC50 [6]: 126 µM (active) |
| O=C(/C=C/c1ccco1)Nc1ccc(Oc2ccccc2)cc1 |  |  |  | 3.82 µM (active) | 17.4 µM (active) |  |
| CCc1nnc(NS(=O)(=O)c2ccc(NC(=S)NC(=O)/C=C/c3ccc(C(C)C)cc3)cc2)s1 |  |  |  |  |  | IC50 [8]: 22.9 µM (active); EC50 [9]: > 50 µM (active) |
| CC1CC(=O)c2c(cc3c(-c4c(O)cc(O)c5c(O)c6c(cc45)OC(C)CC6=O)c(O)cc(O)c3c2O)O1 (stereo unspecified) [CEPHALOCHROMIN] |  | 373 nM (active) | 3.08 µM (active) |  |  |  |
| COC(=O)C(O)(c1c(C)[nH]n(-c2ccccc2)c1=O)C(F)(F)F (stereo unspecified) |  |  |  |  |  | IC50 [10]: 2.43 µM (active) |
